In ChEMBL document CHEMBL3396990, “Development of 1,3-diphenyladamantane derivatives as nonsteroidal progesterone receptor antagonists” (Bioorg Med Chem, 2015) one finds Activity and IC50 data, which are given here for 14 compounds.

Test [1] deals with T1, Progesterone receptor (Homo sapiens) (UniProt P06401).
T1 sequence (whole entry): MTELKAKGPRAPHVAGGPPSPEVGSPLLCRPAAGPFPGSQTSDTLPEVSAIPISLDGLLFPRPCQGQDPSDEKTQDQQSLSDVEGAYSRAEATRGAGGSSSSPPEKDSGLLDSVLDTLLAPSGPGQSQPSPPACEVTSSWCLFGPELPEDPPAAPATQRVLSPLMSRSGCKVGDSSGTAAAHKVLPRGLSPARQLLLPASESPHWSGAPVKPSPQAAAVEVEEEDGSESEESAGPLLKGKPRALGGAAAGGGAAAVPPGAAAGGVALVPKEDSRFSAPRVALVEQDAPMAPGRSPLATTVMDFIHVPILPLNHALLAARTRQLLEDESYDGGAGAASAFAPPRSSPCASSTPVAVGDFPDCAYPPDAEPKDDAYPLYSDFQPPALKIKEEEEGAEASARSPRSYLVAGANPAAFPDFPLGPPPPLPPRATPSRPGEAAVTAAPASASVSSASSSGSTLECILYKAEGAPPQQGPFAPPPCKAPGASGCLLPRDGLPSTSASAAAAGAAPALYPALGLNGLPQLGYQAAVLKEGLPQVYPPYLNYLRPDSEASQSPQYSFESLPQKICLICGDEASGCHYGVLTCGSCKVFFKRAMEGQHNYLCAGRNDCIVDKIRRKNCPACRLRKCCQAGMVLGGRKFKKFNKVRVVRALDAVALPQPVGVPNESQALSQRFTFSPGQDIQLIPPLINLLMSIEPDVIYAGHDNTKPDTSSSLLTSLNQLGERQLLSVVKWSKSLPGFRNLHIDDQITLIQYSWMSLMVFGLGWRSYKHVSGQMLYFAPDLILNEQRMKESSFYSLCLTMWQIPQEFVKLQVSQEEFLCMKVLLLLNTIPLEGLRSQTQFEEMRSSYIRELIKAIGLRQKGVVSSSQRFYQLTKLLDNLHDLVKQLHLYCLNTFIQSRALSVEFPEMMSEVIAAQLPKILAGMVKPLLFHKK
In words: Agonist activity at PR in human T47D cells assessed as induction of alkaline phosphatase expression after 24 hrs by plate reader analysis. In kind it is cell-based.

Test [2] addresses T2, Progesterone receptor (Homo sapiens, UniProt P06401).
T2 sequence (P06401 whole entry): T1 sequence (whole entry)
In words: Antagonist activity at PR in human T47D cells assessed as inhibition of progesterone-inducted alkaline phosphatase expression after 24 hrs by plate reader analysis. In kind it is cell-based.

The target of test [3] is T2, Progesterone receptor. As to the kind of experiment: Displacement of [1,2,6,7-3H]progesterone from human recombinant PR LBD after 24 hrs by liquid scintillation counting analysis.

pIC50: −log10 of the molar value. Active and inactive are the calls of the source. The calls are words filed in the database; no cut-off is given here.

As a reminder, the pIC50 is −log10 of the IC50, conventionally taken in molar units. On to `N#Cc1ccc(C23CC4CC(C2)CC(c2ccc(N(Cc5ccccc5)Cc5ccccc5)cc2)(C4)C3)cc1`, for which the result in test [1] was inactive. For the same compound, the pIC50 on Progesterone receptor [2] was less than 6.00.
Regarding `CCN(C(C)=O)c1ccc(C23CC4CC(CC(c5ccc(C#N)cc5)(C4)C2)C3)cc1`, the result in test [1] was inactive. In addition, the negative-log IC50 (pIC50) at Progesterone receptor [2] was 7.40.
`CN(c1ccc(C23CC4CC(CC(c5ccc(C#N)cc5)(C4)C2)C3)cc1)S(C)(=O)=O`: the result in test [1] was inactive. Besides, the pIC50 on Progesterone receptor [2] was 7.13.
For `CCCCCC(=O)Nc1ccc(C23CC4CC(CC(c5ccc(C#N)cc5)(C4)C2)C3)cc1`, in test [1], the outcome was inactive. In addition, the negative-log IC50 (pIC50) on Progesterone receptor [2] was 6.76.
For the compound `CC(=O)N(C)c1ccc(C23CC4CC(CC(c5ccc(C#N)cc5)(C4)C2)C3)cc1`, in test [1], the outcome was inactive. Further, the negative-log IC50 (pIC50) at Progesterone receptor [2] is 7.59; on Progesterone receptor [3] it was 7.28.
Turning to `N#Cc1ccc(C23CC4CC(C2)CC(c2ccc([N+](=O)[O-])cc2)(C4)C3)cc1`, the result in test [1] was inactive. The pIC50 at Progesterone receptor [2] is 7.28.
As to `COC(=O)N(C)c1ccc(C23CC4CC(CC(c5ccc(C#N)cc5)(C4)C2)C3)cc1`, in test [1], the result was inactive. The pIC50 at Progesterone receptor [2] was 7.44.
The corresponding values for `CC(=O)Nc1ccc(C23CC4CC(CC(c5ccc(C#N)cc5)(C4)C2)C3)cc1` are “inactive” and 7.23.
In the case of `CS(=O)(=O)Nc1ccc(C23CC4CC(CC(c5ccc(C#N)cc5)(C4)C2)C3)cc1`, in test [1], the outcome was inactive. For the same compound, the negative logarithm of the IC50 (pIC50) at Progesterone receptor [2] was 6.92.
Taken in the same sequence, the figures for `N#Cc1ccc(C23CC4CC(CC(c5ccc(N)cc5)(C4)C2)C3)cc1` were “inactive” and 6.75.
Taken in the same sequence, the figures for `CCCCCC(=O)N(C)c1ccc(C23CC4CC(CC(c5ccc(C#N)cc5)(C4)C2)C3)cc1` were “inactive” and 6.90.
Turning to `CN(C(=O)c1ccccc1)c1ccc(C23CC4CC(CC(c5ccc(C#N)cc5)(C4)C2)C3)cc1`, the outcome in test [1] was inactive. Besides, the figures for the pIC50 at Progesterone receptor [2] and at Progesterone receptor [3] were 6.51 and 6.64, respectively.
As to `COC(=O)Nc1ccc(C23CC4CC(CC(c5ccc(C#N)cc5)(C4)C2)C3)cc1`, the result in test [1] was inactive. Besides, the negative logarithm of the IC50 (pIC50) on Progesterone receptor [2] is 7.60; on Progesterone receptor [3], less than 5.00.
With `N#Cc1ccc(C23CC4CC(C2)CC(c2ccc(NC(=O)c5ccccc5)cc2)(C4)C3)cc1`, the outcome in test [1] was inactive. Besides, at Progesterone receptor [2], the negative-log IC50 (pIC50) is 6.39.
